From patent US10772875B2, “Agents enhancing HuR/ELAV protein levels for use in the treatment of BRAF-mutated cancers” (LES HOPITAUX UNIVERSITAIRES DE GENEVE, priority 2017, dated 2020)

Columns and labels:
HuR in A375 cells = assay: Western blot of nuclear and cytoplasmic fractions for HuR expression, A375; assay type: cell-based, human; conditions: for HuR cytoplasmic content: C1 5 mM or 1 mM for 6 days, C2 15 μM 24 h
Source text: (§1) Some HIV protease inhibitors (such as Nelfinavir) have been used in combination with a BRAF inhibitor to potentiate its effect (Smith et al., 2016, cancer cell, 29(3): 270-284) and some HIV protease inhibitors have (such as Lopinavir) been reported as increasing the cytosolic translocation of HuR (Chen et al., 2009, Biochem Pharmacol., 78(1): 70-77). Further, some polyamine depleting agents i.e. agents reducing the cellular content in polyamines (α-difluoromethylornithine (DFMO), also named Eflornithin) have been reported to modulate cytoplasmic HuR levels (Zou et al., 2006, J. Biol. Chem., 281(28):19387-94). Therefore, a […], Eflornithine (DFMO) and a HIV protease inhibitor, lopinavir ((2S)-N-[(2S,4S,5S)-5-[[2-(2,6-dimethylphenoxy)acetyl]amino]-4-hydroxy-1,6-diphenylhexan-2-yl]-3-methyl-2-(2-oxo-1,3-diazinan-1-yl)butanamide) were tested as comparative examples ((comparative compounds C1 and C2, respectively)) for their ability to increase HuR cytoplasmic localization in melanoma (A375 and the MALME-3M cells (melanoma BRAF mutated sensitive cell lines) cell lines as follows and analysis was conducted by Western blot analysis as described in Example 1 [, except that the cells were treated with comparative compound C1 dissolved in DMSO at 5 mM or at 1 mM for 6 consecutive days, where fresh medium with C1 was added in 6 well plates every day and the cells were split every 3 days or the cells were treated with C2 at 15 μM dissolved in DMSO for 24 h. Cell fractionation was conducted using the NE-PER Nuclear and Cytoplasmic Extraction Reagents (ThermoFisher Scientific) according to the manufacturer's instructions. Nuclear (N) and cytoplasmic (C) fractions were analyzed for HuR expression by western blot as described above. […] As a comparison of successful increase in HuR cytoplasmic content, western blot analysis was performed on cells infected with aG or aH at m.o.i 5, 25 or 125 as described in Example1 (FIG. 8C).
(§2) Western blot analysis was conducted as described in Examples 1 and 5, except that cells were treated with LiCl at 1 mM (for 6 h for A375 and for 24 h for MALME-3M cells) before cell lysis and analysis. […] Considering that HuR is mainly a nuclear protein, the absence of any nuclear contamination in the cytoplasm as observed here fulfils the experimental requirements. The increased cytoplasmic expression of HuR was quantified as being respectively 80% and 50% increased in A375 and Malme 3M melanoma cells using an image quantification software (ImageJ).

HuR in MALME-3M cells = assay: Western blot of nuclear and cytoplasmic fractions for HuR expression, MALME-3M; assay type: cell-based, human; conditions: for HuR cytoplasmic content: C1 5 mM or 1 mM for 6 days, C2 15 μM 24 h
Source text: as §1, §2

[1] = test system: HuR in A375 melanoma cells; assay: Whole cell extract western blot on HuR-expressing adenovirus-infected A375 cells; conditions: Li 1 mM and 10 mM
Procedure: Western blot analysis was performed on cell extracts of A375 cells at 48 h post-infection. Whole cell lysates were prepared using RIPA (radioimmunoprecipitation assay) buffer (PBS (phosphate-buffered saline), 1% NP40 (nonyl phenoxypolyethoxylethanol 40), 0.1% sodium deoxycholate, 0.1% SDS (sodium dodecyl sulphate)) supplemented with fresh protease and phosphatase inhibitors (easy packs tablets, Roche). Cell lysates were quantified for protein content using Bio-Rad DC (detergent compatible) kit. Protein samples were resolved on 12.5% polyacrylamide Bis-Tris gel (Bio-rad) and then transferred to nitrocellulose membrane. After saturation, the membranes were incubated overnight with the anti-HuR mouse monoclonal antibody (Santa-Cruz/3A2-sc-5261, 1:1000) raised against full-length HuR of human origin. The secondary antibody conjugated to horseradish-peroxidase (Bio-Rad goat anti-mouse IgG-HRP, 1:3000) was incubated at room temperature for 30 minutes. Blots were developed using the ECL (enhanced chemiluminescent) system (Thermo-Scientific) according to the manufacturer's instructions.

A375 cells = assay: WST-1 cell proliferation assay, vemurafenib dose response; assay type: cell-based; conditions: for proliferation rate increase (paradoxical proliferation): A375 cells, 48 h
Procedure: The A375 BRAFV600E melanoma cell line was purchased from CLS Cell Lines Service GmbH (Cryovial: 300110). A375 cells were maintained at 37° C. and 5% CO2 in a humidified atmosphere and grown in DMEM (Dulbecco's modified Eagle's medium) growth media supplemented with 10% FBS (fetal bovine serum), 2 mM glutamine, 1% penicillin/streptomycin. Cells were verified to be mycoplasma-free (PanReac Applichem mycoplasma test kit). Cells were treated with the BRAF inhibitor, vemurafenib (Selleckchem), also known as N-[3-[5-(4-chlorophenyl)-1H-pyrrolo[2,3-b]pyridine-3-carbonyl]-2,4-difluorophenyl]propane-1-sulfonamide and dissolved in dimethyl sulphoxide (DMSO, 10 mM storing concentration).
Cell proliferation was measured using WST-1 reagent (Roche applied Science). Melanoma cells were plated (2500 cells per well) in 96-well tissue culture plates. After 24 h, the cells were treated with vemurafenib or DMSO (excipient) at the indicated concentrations in triplicate or quadruplicate. The excipient is used at the same dilution as the one necessary to get the desired concentration of vemurafenib, in that case for example if 1/1000 dilution is necessary to get a 100 nM final concentration of vemurafenib, then the DMSO pure stock solution will be also diluted to 1/1000. For the standard proliferation assays, after the treatment period of 48 h, WST-reagent (20 μl, 10% of the final volume) was added to the wells and incubated at 37° C. for 1 to 2 h depending on the experiment in order to stay within the linear range of the assay. The plates were read at 450(−650) nm on a Vmax kinetic ELISA Microplate Reader (Molecular Devices). Cell proliferation is expressed as percentage of the absorbance compared with the DMSO-treated cells. Proliferation assays for overexpression experiments were scheduled as follows: A375 cells were plated (800000 cells per well) in six-well culture plates. After 24 h, the cells were infected overnight at indicated m.o.i. […]

[2] = test system: BRAF-mutant colorectal patients; conditions: BRAF-mutant colorectal patients (Kopetz et al., 2010); cited from earlier work

NCCC[C@](N)(C(=O)O)C(F)F [C1, α-difluoromethylornithine]
HuR cytoplasmic content (HuR in A375 cells): no increase of HuR cytoplasmic content
HuR cytoplasmic content (HuR in MALME-3M cells; MALME-3M cells): no increase of HuR cytoplasmic content

Cc1cccc(C)c1OCC(=O)N[C@@H](Cc1ccccc1)[C@@H](O)C[C@H](Cc1ccccc1)NC(=O)[C@H](C(C)C)N1CCCNC1=O [C2, (2S)-N-[(2S,4S,5S)-5-[[2-(2,6-dimethylphenoxy)acetyl]amino]-4-hydroxy-1,6-diphenylhexan-2-yl]-3-methyl-2-(2-oxo-1,3-diazinan-1-yl)butanamide]
HuR cytoplasmic content (HuR in A375 cells): no increase of HuR cytoplasmic content
HuR cytoplasmic content (HuR in MALME-3M cells; MALME-3M cells): no increase of HuR cytoplasmic content

[Cl-].[Li+] [LiCl, Lithium Chloride]
total amount of HuR expression and HuR cytoplasmic content (HuR in A375 cells; LiCl 1 mM): increase of both total amount of HuR expression and HuR cytoplasmic content
increased cytoplasmic expression of HuR (ImageJ quantification) (HuR in A375 cells; LiCl 1 mM, 6 h): 80%
total amount of HuR expression and HuR cytoplasmic content (HuR in MALME-3M cells; MALME-3M cells, LiCl 1 mM): increase of both total amount of HuR expression and HuR cytoplasmic content
increased cytoplasmic expression of HuR (ImageJ quantification) (HuR in MALME-3M cells; Malme 3M cells, LiCl 1 mM, 24 h): 50%
total amount of HuR expression (endogenous and exogenous epitope-tagged HuR) [1]: clearly increases the total amount of HuR expression with a dose effect

CCCS(=O)(=O)Nc1ccc(F)c(C(=O)c2c[nH]c3ncc(-c4ccc(Cl)cc4)cc23)c1F [vemurafenib, N-{3-[5-(4-chlorophenyl)-1H-pyrrolo[2,3-b]pyridine-3-carbonyl]-2,4-difluorophenyl}propane-1-sulfonamide]
proliferation rate increase (paradoxical proliferation) (A375 cells; 20 nM vemurafenib): up to 50%
proliferation rate increase (paradoxical proliferation) (A375 cells; 100 nM vemurafenib): up to 25%
vemurafenib-induced paradoxical proliferation (A375 cells; aH cells (HuR-overexpressing A375), in contrast to aG or non-infected cells): no vemurafenib-induced paradoxical proliferation was observed
patients who respond [2]: ~5%
